Values quoted from earlier work in patent publication US12708115B2, “Inground and above ground termite trailing and recruitment products and processes” (Florida Insect Control Group LLC, priority 2023, dated 2026).

Test system: subterranean termites

With `OCCOc1ccccc1` [2-phenoxyethanol] as the molecule, how does the “soil-treated detection stations hit by termites” value (field, untreated stations 0 of 20) read?
Its value is 5 of 20.

And the “feeding on cellulose material surrounded by the treatment” value (soil treatment, Prescott thesis)?
Its value is “feed more”.
